This is an account of results in patent publication US12409237B1, “Methods and models for assessing efficacy of immunotherapies” (The Jackson Laboratory, priority 2016, dated 2025).

“Also recorded” adds a separate entry of the source.

In the assay the test system is human BL0293 tumor cells (bladder cancer cells). As to the kind of experiment: Tumor growth of BL0293 patient-derived xenograft in NSG-Quad mice engrafted with human CD34+ hematopoietic stem cells. The format is in vivo, mouse. The following applies: NSG-Quad mice with human CD34+ HSC and BL0293 xenografts; intravenous 10 mg/kg on day 0, then 5 mg/kg on days 5, 10 and 15; versus vehicle; tumors 60-100 mm^3 at grouping. On the procedure: NSG-Quad mice were irradiated with 50 cGy whole body radiation. NSG-SGM3 mice were irradiated with 50 cGy whole body radiation and NSG mice were irradiated with 100 cGy whole body radiation as controls. Each mouse received about 100,000 human CD34^+ hematopoietic stem cells from the same donor by injection. Blood cells obtained by retro-orbital bleeding at 10 weeks post-engraftment were assessed by flow cytometry for mouse CD45, human CD45, human CD20, human CD3, human CD33, human CD14, and human CD56 (FIG. 1A-F). Live cells were gated using LIVE/DEAD® (ThermFisher Scientific).
BR1126, MDA-MB-231, TM1149, and BL0293 tumor cells were separately implanted subcutaneously into NSG-Quad and NSG-SGM3 mice at 7-12 weeks post-CD34^+-cell engraftment (see Example 1). Tumor sizes were measured with calipers.
NSG-Quad mice xenografted with human BL0293 tumor cells (bladder cancer cells) were grouped when tumors reached 60-100 mm^3, and mice were then administered intravenous pembrolizumab at 10 mg/kg on day 0 followed by 5 mg/kg on days 5, 10, and 15. Tumor sizes were measured by calipers.
FIG. 5 is a graph depicting tumor volumes for NSG-Quad mice that have human CD34^+ hematopoietic stem cell xenografts and BL0293 patient-derived xenografts and receiving either pembrolizumab (Keytruda®) or vehicle. Each data point corresponds to a single mouse at a specific time-point. […]
(In general: In xenograft studies the graft and the host belong to different species.)

In the case of pembrolizumab, the “tumor growth (tumor volume measured by calipers)” value is “reduced tumor growth rates; also recorded: slower tumor growth on average”.
